From PubChem BioAssay (NCI)
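Dose response: 5 concentrations. Exposure: 48 h. Format: 96-well plates. Endpoint: linear interpolation; highest concentration if not reached. The concentration for full growth arrest is given as TGI.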

Tests used:
Test in all cases: inhibition of tumour cell growth, NCI panel, 48 h
[1] = test system: NCI-H23 lung
[2] = test system: UACC-257 melanoma
[3] = test system: SK-MEL-2 melanoma
[4] = test system: RPMI-8226 leukemia
[5] = test system: MDA-N
[6] = test system: EKVX NSCLC
[7] = test system: UACC-62 melanoma
[8] = test system: A549 NSCLC
[9] = test system: SF-295 CNS
[10] = test system: NCI/ADR-RES ovarian
[11] = test system: HOP-62 NSCLC
[12] = test system: DU-145 prostate
[13] = test system: CCRF-CEM leukemia
[14] = test system: MDA-MB-435
[15] = test system: SK-MEL-5 melanoma
[16] = test system: PC-3 prostate
[17] = test system: SF-268 CNS
[18] = test system: M14 melanoma
[19] = test system: OVCAR-5 ovarian
[20] = test system: K-562 leukemia
[21] = test system: IGROV1 ovarian
[22] = test system: SN12C renal
[23] = test system: SW-620 colon
[24] = test system: A498 renal
[25] = test system: HS 578T breast
[26] = test system: MOLT-4 leukemia
[27] = test system: SK-MEL-28 melanoma
[28] = test system: SK-OV-3 ovarian
[29] = test system: CAKI-1 renal
[30] = test system: MALME-3M melanoma
[31] = test system: OVCAR-4 ovarian
[32] = test system: HT29 colon
[33] = test system: HCT-15 colon
[34] = test system: LOX IMVI melanoma
[35] = test system: SR leukemia
[36] = test system: HOP-92 NSCLC
[37] = test system: SNB-75 CNS
[38] = test system: KM12 colon
[39] = test system: TK-10 renal
[40] = test system: NCI-H522 lung
[41] = test system: T-47D breast
[42] = test system: NCI-H226 lung
[43] = test system: MDA-MB-231 breast
[44] = test system: UO-31 renal
[45] = test system: RXF 393 renal
[46] = test system: HCT-116 colon
[47] = test system: 786-0 renal
[48] = test system: OVCAR-8 ovarian
[49] = test system: SNB-19 CNS
[50] = test system: BT-549 breast
[51] = test system: OVCAR-3 ovarian
[52] = test system: U251 CNS
[53] = test system: COLO 205 colon
[54] = test system: ACHN renal
[55] = test system: SF-539 CNS
[56] = test system: HL-60(TB) leukemia
[57] = test system: HCC-2998 colon
[58] = test system: NCI-H460 lung
[59] = test system: MCF7 breast

CC(C)(C)OC(=O)N1CC(O)O[C@H](c2ccccc2)[C@@H]1c1ccccc1 (stereo not given in full)
TGI [1]: 29.5 µM | TGI [2]: 35.3 µM | TGI [3]: 28.4 µM | TGI [4]: > 100 µM | TGI [5]: 59.5 µM | TGI [6]: 40.9 µM | TGI [7]: 28.1 µM | TGI [8]: 39.5 µM | TGI [9]: 30.1 µM | TGI [10]: > 100 µM | TGI [11]: 31.2 µM | TGI [12]: 53.8 µM | TGI [13]: 48.4 µM | TGI [14]: 32.2 µM | TGI [15]: > 100 µM | TGI [16]: 27.8 µM | TGI [17]: 77.6 µM | TGI [18]: 30.2 µM | TGI [19]: 32.3 µM | TGI [20]: > 100 µM | TGI [21]: 40.4 µM | TGI [22]: > 100 µM | TGI [23]: 32.8 µM | TGI [24]: 40.7 µM | TGI [25]: > 100 µM | TGI [26]: 97.5 µM | TGI [27]: 35.2 µM | TGI [28]: 36.6 µM | TGI [29]: > 100 µM | TGI [30]: 43.2 µM | TGI [31]: 36.2 µM | TGI [32]: 39.3 µM | TGI [33]: 33.9 µM | TGI [34]: > 100 µM | TGI [35]: 62.8 µM | TGI [36]: 36.1 µM | TGI [37]: 70.2 µM | TGI [38]: 42 µM | TGI [39]: 33.1 µM | TGI [40]: 45.6 µM | TGI [41]: > 100 µM | TGI [42]: 45.7 µM | TGI [43]: 67.6 µM | TGI [44]: 31.4 µM | TGI [45]: 30 µM | TGI [46]: > 100 µM | TGI [47]: 62.1 µM | TGI [48]: > 100 µM | TGI [49]: 29.1 µM | TGI [50]: 36.4 µM | TGI [51]: 30.2 µM | TGI [52]: 33.4 µM | TGI [53]: 97.4 µM

c1cc2ccc3cc4ncccc4c4ccc(c1)c2c34
TGI [1]: > 100 µM | TGI [2]: > 100 µM | TGI [3]: 77 µM | TGI [4]: 88.3 µM | TGI [5]: > 100 µM | TGI [6]: > 100 µM | TGI [7]: > 100 µM | TGI [54]: 31.6 µM | TGI [8]: > 100 µM | TGI [9]: > 100 µM | TGI [10]: > 100 µM | TGI [11]: > 100 µM | TGI [12]: > 100 µM | TGI [13]: > 100 µM | TGI [14]: > 100 µM | TGI [16]: > 100 µM | TGI [17]: > 100 µM | TGI [18]: > 100 µM | TGI [55]: > 100 µM | TGI [19]: > 100 µM | TGI [20]: > 100 µM | TGI [21]: 25 µM | TGI [22]: > 100 µM | TGI [23]: > 100 µM | TGI [25]: > 100 µM | TGI [26]: > 100 µM | TGI [27]: > 100 µM | TGI [28]: > 100 µM | TGI [29]: > 100 µM | TGI [30]: > 100 µM | TGI [32]: > 100 µM | TGI [33]: > 100 µM | TGI [34]: > 100 µM | TGI [35]: > 100 µM | TGI [36]: > 100 µM | TGI [37]: > 100 µM | TGI [38]: > 100 µM | TGI [56]: > 100 µM | TGI [39]: > 100 µM | TGI [40]: > 100 µM | TGI [41]: > 100 µM | TGI [42]: > 100 µM | TGI [43]: > 100 µM | TGI [44]: 40.2 µM | TGI [45]: > 100 µM | TGI [46]: > 100 µM | TGI [47]: > 100 µM | TGI [48]: 67.4 µM | TGI [49]: > 100 µM | TGI [57]: > 100 µM | TGI [58]: > 100 µM | TGI [51]: > 100 µM | TGI [52]: > 100 µM | TGI [53]: > 100 µM | TGI [59]: > 100 µM

COc1ccc2oc(=N)c(C(N)=O)cc2c1
TGI [1]: > 100 µM | TGI [2]: > 100 µM | TGI [3]: 63 µM | TGI [4]: > 100 µM | TGI [5]: > 100 µM | TGI [7]: > 100 µM | TGI [54]: > 100 µM | TGI [8]: > 100 µM | TGI [10]: > 100 µM | TGI [11]: > 100 µM | TGI [12]: > 100 µM | TGI [13]: > 100 µM | TGI [14]: > 100 µM | TGI [15]: > 100 µM | TGI [16]: > 100 µM | TGI [17]: > 100 µM | TGI [18]: > 100 µM | TGI [55]: > 100 µM | TGI [19]: > 100 µM | TGI [20]: > 100 µM | TGI [21]: > 100 µM | TGI [22]: > 100 µM | TGI [23]: > 100 µM | TGI [24]: > 100 µM | TGI [25]: 61.7 µM | TGI [26]: > 100 µM | TGI [27]: > 100 µM | TGI [28]: > 100 µM | TGI [29]: > 100 µM | TGI [31]: > 100 µM | TGI [32]: > 100 µM | TGI [33]: > 100 µM | TGI [34]: > 100 µM | TGI [35]: > 100 µM | TGI [36]: > 100 µM | TGI [37]: > 100 µM | TGI [38]: > 100 µM | TGI [56]: > 100 µM | TGI [41]: > 100 µM | TGI [42]: > 100 µM | TGI [43]: > 100 µM | TGI [45]: > 100 µM | TGI [46]: > 100 µM | TGI [47]: > 100 µM | TGI [48]: > 100 µM | TGI [49]: > 100 µM | TGI [57]: > 100 µM | TGI [50]: > 100 µM | TGI [58]: > 100 µM | TGI [51]: > 100 µM | TGI [52]: > 100 µM | TGI [53]: > 100 µM
